Values quoted from earlier work, collected in patent publication US20020182585A1, “Combination and method using EDTA, cystine, zinc and selenium for anti-thrombin effect and for anti-platelet aggregation and measurement of efficacy” (priority 2001, published 2002).

Details: EDTA binding of the metal cation; adapted from Schwartzenbach, 1957

Structure (SMILES) | Stability Constant Log K
[Ni+2] [Ni^++] | 18.0
[Co+2] [Co^++] | 16.3
[Pb+2] [Pb^++] | 18.5
[Hg+2] [Hg^++] | 21.8
[Cd+2] [Cd^++] | 16.5
